Test results taken from patent publication US7771711B2, “Sphingolipids' polyalkylamines conjugates” (Yissum Research Development Company of The Hebrew …, priority 2003, dated 2010).
Where a name gives a salt, the structure may show the parent alone. Blank lines part the entries; values can stand above or below the compound they belong to.

What was measured:
[1] = Assembly size by dynamic light scattering (ALV back scattering); format: physicochemical
[2] = Electrostatics from dissociation curve of bilayer-incorporated hydroxycoumarin probes (HCPE, C17HC); format: physicochemical; conditions: for pKa C17HC: apparent pKa of hydroxycoumarin probe C17HC incorporated in the assemblies; for Surface potential C17HC / Surface potential HCPE: from shift of pKa of HC, Boltzmann equation; for Surface potential C17HC / Surface pH C17HC: probe C17HC; for pKa HCPE: apparent pKa of hydroxycoumarin probe HCPE incorporated in the assemblies; for Surface potential HCPE / Surface pH HCPE: probe HCPE
Protocol: The fluorescence excitation of the fluorophore 7-hydroxycoumarin (HC) moieties at 405 nm for HCPE and 380 nm for C17HC reflects the amount of the ionized species, while the excitation at 370 nm for HCPE and 330 nm for C17HC is the pH-independent isosbestic point, reflects the total amount of probe in the liposomes and micelles. Fluorescence emission was determined at 450 nm for all the above excitations. These two ratios (405/370 for HCPE, and 380/330 for C17HC) give the degree of ionization of HC fluoropore. The titration curve of HC, which is generated by plotting fluorescence excitation intensity ratio I405/I370 for HCPE and I380/I330 for C17HC at broad range of bulk pH, enables to calculate the apparent pKa of HC in HCPE and C17HC, respectively. The pKa of HC in the liposomal bilayer and/or in the micelles is calculated by fitting the above titration curve to the modified Henderson -Hasselbach equation, as described before [Zuidam & Barenholz (1997) ibid.]. The surface potential is then determined from the shift of pKa of HC that dramatically occurs in the strongly basic environment of cationic bilayer, according to the Boltzmann equation [Zuidam & Barenholz (1997) ibid.]

[3] = DPH fluorescence increase upon aggregation
[4] = ζ-potential by Zetasizer in 10 mM NaCl; format: physicochemical; conditions: 25° C., 10 mM NaCl (pH 6.7)
Protocol: Liposomes' and micelles' ζ-potential was measured at 25° C. by the mobility of the particles in the applied electrical field using a Zetasizer 3000 HAS, Malvern Instruments, Malvern, UK, by diluting an aliquot of 40 μL in 20 mL of 10 mM NaCl (pH 6.7) and passing the solutions before measurement through a 0.2-μm syringe filter (Minisart, Sartorius, Germany). ζ-potential reflects the electrical potential at the plane of sheer (further away from the actual surface), which is sensed by the HCPE and C17HC.

[5] = Follow up (storage) assays of CCS lipid assemblies in HEPES pH 7.4 at 4° C.; format: physicochemical
Protocol: FIGS. 3A-3D show the results of the different follow up assays (follow up for 23 days). The follow up assay were based on TNBS test, which is a quantitative assay based on color reaction of TNBS reagent with primary amines.
The level of primary amines was determined with storage time in TNBS binding and described as % of freshly hydrated preparation. The change in Zeta potential, the change in the HCPE fluorescence 450 nm/370 mnm excitation ratio, and the change in size of the lipid assemblies (liposomes or micelles) formed was determined.
At 21 day, there were 6 time points of storage, which were assayed simultaneously for the following parameters: […]

[6] = Level of hydration by Laurdan excitation general polarization; format: physicochemical; conditions: 20 mM HEPES pH 7.4, 25° C.
Protocol: Hydration level of the different CCS-based lipid assemblies before and after the addition of plasmid DNA was determined by monitoring changes of “Laurdan excitation general polarization” according to which the higher the value obtained, the lower is the level of hydration.
6-Dodecanoyl-2-dimethylaminonaphthalene (Laurdan), purchased from Lambda (Graz, Austria), was used to follow changes in hydration level of the liposome bilayer. The naphthalene fluorophore of this probe is located at the hydrophilichydrophobic interface of the bilayer, and its 12-carbon chain is aligned parallel to the bilayer lipid acyl chains. When associated with lipids, Laurdan excitation and emission spectra depend strongly on the phase of the lipid. […] The lipid phases and level of hydration can be described by a Laurdan steady-state fluorescence parameter referred to as generalized polarization (GP) [Hirsch-Lerner D, Barenholz Y. Biochim Biophys Acta. […] Laurdan GP fluorescence spectra in lipid vesicles are dependent on the number of water molecules around the fluorescent moiety of Laurdan. Excitation GP was calculated according to the expression: GP340=(I440−I490)/(I440+I490) (1) where I440 and I490 are the intensities of fluorescence emission at wavelengths 440 and 490 nm and the excitation wavelength 340 nm. […]

[7] = base
[8] = listed as CCS Acetate (micelles)
[9] = listed as CCS Chloride (micelles)

Assembly size, diameter (mass-weight) [1]: micelles 6 nm;
pKa C17HC [2, 8]: 4.75
Surface potential C17HC [2, 8]: 245.8 mV
Surface pH C17HC [2, 8]: 11.5
Critical Micelle Concentration (CMC) [3]: 5 µM
ζ-potential [4, 8]: 40
Compound: CCCCCCCCCCCCC/C=C/[C@@H](O)[C@H](COC(=O)NCCCNCCCCNCCCN)NC(=O)CCCCCCCCCCCCCCC [CCS Acetate salt, N-palmitoyl D-erythro sphingosyl-1-carbamoyl spermine]

Zeta potential during storage ([5]; HEPES buffer pH 7.4, 4° C., 23 days): no substantial change
Change in time in diameter of lipid assemblies during storage ([5]; HEPES pH 7.4, 4° C.): remained relatively small
Period of chemical stability of dispersions in aqueous phase ([5]; HEPES pH 7.4, 4° C.): at least 23 days
Surface pH and electrical surface potential over storage (HCPE 405/370 excitation ratio) ([5]; HEPES pH 7.4, 4° C., entire period of storage): unchanged
Level of primary amines upon storage (TNBS binding) ([5]; HEPES pH 7.4, 4° C., follow up for 23 days): no substantial change
Hydration state before addition of DNA (Laurdan GP) [6]: high hydration state
Hydration state upon addition of DNA (Laurdan GP) ([6]; formation of lipoplexes): become dehydrated
Solubility in ethanol [7]: exhibited
Compound: CCCCCCCCCCCCC/C=C/[C@@H](O)[C@H](COC(=O)NCCCNCCCCNCCCN)NC(=O)CCCCCCCCCCCCCCC [CCS, N-palmitoyl D-erythro sphingosyl-1-carbamoyl spermine]

Assembly size, diameter (mass-weight) [1]: micelles 25 nm;
pKa C17HC [2, 9]: 5.61
pKa HCPE [2, 9]: 6.56
Surface potential C17HC [2, 9]: 195.4 mV
Surface potential HCPE [2, 9]: 242.3 mV
Surface pH C17HC [2, 9]: 10.64
Surface pH HCPE [2, 9]: 11.54
Critical Micelle Concentration (CMC) [3]: 5 µM
ζ-potential [4, 9]: 46.5
Compound: CCCCCCCCCCCCC/C=C/[C@@H](O)[C@H](COC(=O)NCCCNCCCCNCCCN)NC(=O)CCCCCCCCCCCCCCC [CCS Chloride salt, N-palmitoyl D-erythro sphingosyl-1-carbamoyl spermine]

pKa HCPE [2]: 7.23
Surface potential HCPE [2]: 203.06 mV
Surface pH HCPE [2]: 10.87
ζ-potential [4]: 34
Compound: CCCCCCCCCCCCC/C=C/[C@@H](O)[C@H](COC(=O)NCCCNCCCCNCCCN)NC(=O)CCCCCCCCCCCCCCC [CCS non-protonated, N-palmitoyl D-erythro sphingosyl-1-carbamoyl spermine]
